Results as given in PMC6347603, “N^+-C-H···O Hydrogen bonds in protein-ligand complexes” (Scientific Reports, 2019).

Columns and labels:
[1] = biological target: T1, G9a-like protein (GLP) (Homo sapiens, UniProt Q9H9B1); experiment: GLP activity assay (GLP Chemiluminescent Assay Kit); format: biochemical; details: for IC50: 2 μM SAM, 40 ng GLP, 120 min, room temperature, mean values of at least three experiments, read-out: In vitro GLP-inhibitory activity IC50
T1 construct: purchased BPS Bioscience, Inc. 53007
T1 sequence (Q9H9B1 1-1298): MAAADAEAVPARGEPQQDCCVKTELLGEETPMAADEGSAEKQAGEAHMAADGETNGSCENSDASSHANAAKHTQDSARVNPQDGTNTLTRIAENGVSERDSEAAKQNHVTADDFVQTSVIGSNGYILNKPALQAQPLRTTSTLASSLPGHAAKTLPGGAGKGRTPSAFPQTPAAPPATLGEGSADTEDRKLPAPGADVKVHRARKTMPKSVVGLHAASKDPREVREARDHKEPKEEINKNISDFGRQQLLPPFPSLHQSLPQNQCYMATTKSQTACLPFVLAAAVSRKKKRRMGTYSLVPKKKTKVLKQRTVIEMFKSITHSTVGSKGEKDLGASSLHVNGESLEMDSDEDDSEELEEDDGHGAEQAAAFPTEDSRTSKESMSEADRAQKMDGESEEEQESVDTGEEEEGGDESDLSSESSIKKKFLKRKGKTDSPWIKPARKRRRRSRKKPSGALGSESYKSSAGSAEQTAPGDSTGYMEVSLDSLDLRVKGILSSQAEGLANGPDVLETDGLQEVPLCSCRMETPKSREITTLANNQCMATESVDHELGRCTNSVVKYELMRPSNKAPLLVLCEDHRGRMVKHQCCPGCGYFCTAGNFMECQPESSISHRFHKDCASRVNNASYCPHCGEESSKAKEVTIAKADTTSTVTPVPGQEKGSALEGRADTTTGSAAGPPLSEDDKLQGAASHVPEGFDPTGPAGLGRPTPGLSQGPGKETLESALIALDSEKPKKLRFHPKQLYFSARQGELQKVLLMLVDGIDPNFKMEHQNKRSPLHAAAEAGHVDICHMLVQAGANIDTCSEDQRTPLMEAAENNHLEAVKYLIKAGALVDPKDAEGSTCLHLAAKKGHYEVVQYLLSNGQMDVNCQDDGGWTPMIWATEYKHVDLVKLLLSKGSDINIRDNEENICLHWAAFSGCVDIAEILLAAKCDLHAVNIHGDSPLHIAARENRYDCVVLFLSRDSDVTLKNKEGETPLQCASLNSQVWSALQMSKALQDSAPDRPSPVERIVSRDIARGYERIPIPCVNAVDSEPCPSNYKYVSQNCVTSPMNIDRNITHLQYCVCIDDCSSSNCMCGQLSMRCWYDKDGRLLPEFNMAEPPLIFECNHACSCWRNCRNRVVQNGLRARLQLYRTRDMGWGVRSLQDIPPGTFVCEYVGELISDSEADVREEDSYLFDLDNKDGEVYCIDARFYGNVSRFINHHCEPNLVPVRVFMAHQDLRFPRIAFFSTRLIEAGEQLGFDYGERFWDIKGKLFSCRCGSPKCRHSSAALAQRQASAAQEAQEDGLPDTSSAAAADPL
Experimental: The GLP activity assay was carried out using a GLP Chemiluminescent Assay Kit (Catalog #53007, BPS Bioscience, Inc.). Microwells were rehydrated by adding 200 μL of tris buffered saline with Tween 20 (TBS-T: 1x TBS, pH = 8.0, containing 0.05% Tween-20) to every well, followed by incubation at room temperature for 45 minutes. After removing TBS-T, the inhibitors were incubated in the presence of 2 μM SAM and 40 ng of GLP in the supplied buffer on the microwells of (120 min, room temperature, total volume: 50 μL). After the enzymatic reaction, every well was washed three times with TBS-T (100 μL) and blocked for 10 min with blocking buffer. Then, 100 μL of primary anti-body solution (1:400 dilution) were added to the microwells, followed by incubation (2 h). The wells were probed with the primary antibody, washed three times with TBS-T (100 μL), incubated (2 h, room temperature) with sheep secondary anti-body (1:1000 diluted), and again washed three times with TBS-T (100 μL). The chemiluminescence of the wells, to which detection reagents were added, was measured on a chemiluminescence reader (ARVO X3 Multilabel Plate Reader), and the values of % inhibition were calculated from the chemiluminescence readings of inhibited wells relative to those of control wells.

[2] = biological target: T2, GLP recombinant protein (Homo sapiens, UniProt Q9H9B1); experiment: Isothermal titration calorimetry (ITC) of GLP inhibitors binding to GLP; details: 25 °C, 20 mM Tris pH 8.0, 150 mM NaCl, 2% DMSO, 50 μM AdoMet; for Kd: 10 μM GLP, 100 μM inhibitor, one-site binding model, read-out: dissociation constant KD (ITC); for −TΔS (ITC): calculated from ΔG = ΔH − TΔS
T2 construct: purchased Active Motif, Inc. 31920
T2 sequence (Q9H9B1 1-1298): T1 sequence (Q9H9B1 1-1298)
Experimental: A GLP recombinant protein solution (Catalog #31920, Active Motif, Inc.) was concentrated by ultrafiltration and the buffer was replaced with test buffer (20 mM Tris pH 8.0, 150 mM NaCl, 2% DMSO and 50 μM AdoMet). ITC measurements of GLP inhibitors binding to the GLP were recorded at 25 °C using a MicroCal PEAQ-ITC microcalorimeter (Malvern Panalytical) in the test buffer. The titrations were performed using 10 μM GLP solution in the sample cell and 100 μM inhibitor solution in the syringe. A typical experiment consisted of 19 injections under the following parameters: one injection of 0.4 μL followed by 18 injections of 2.0 μL; 150 s spacing between injections; 750 rpm stirring speed; and reference power set to 5 μcal s^−1. The heat of dilution of the ligand into the buffer measured independently was essentially similar to the heat signal obtained at the end of the titration; so the signal of the last injection was used as the background heat signal. The experimental data were analyzed using the MicroCal PEAQ-ITC Analysis software (Malvern Panalytical), and fitted using the one-site binding model. Values of ΔG, KD, and −TΔS were calculated using the thermodynamic relationships, ΔG = −RT lnKa, KD = 1/Ka, and ΔG = ΔH − TΔS.
Figure S20. Determination of the disassociation constant and thermodynamic parameters of 14a–14c by isothermal titration calorimetry (ITC). (A–C) The binding of (A) 14a, (B) 14b and (C) 14c to GLP are measured by ITC. The titrations were conducted in buffer containing 20 mM Tris pH 8.0, 150 mM NaCl, 2% DMSO and 50 μM AdoMet. The sample chamber and syringe were filled with 10 μM GLP and 100 μM inhibitor, respectively. (D) Summary of disassociation constant and thermodynamic parameter profiles of 14a–14c.

Row | IC50 [1] [nM] | ΔH (ITC) [2] [kcal/mol] | Kd [2] [nM] | −TΔS (ITC) [2] [kcal/mol] | GLP inhibition (result in words) ([1]; up to 3 μM) | SMILES
1 | 156 | -10.7 | 171 | 1.42 |  | COc1cc2nc(NCCCN(C)C)nc(NC3CCN(Cc4ccccc4)CC3)c2cc1OC [Compound 14a]
2 | 664 | -8.58 | 617 | 0.10 |  | CNCCCNc1nc(NC2CCN(Cc3ccccc3)CC2)c2cc(OC)c(OC)cc2n1 [Compound 14b, N^4-(1-Benzylpiperidin-4-yl)-6,7-dimethoxy-N^2-[3-(methylamino)propyl]quinazoline-2,4-diamine]
3 | 1450 | -7.04 | 944 | -1.19 |  | COc1cc2nc(NCCCN)nc(NC3CCN(Cc4ccccc4)CC3)c2cc1OC [Compound 14c]
4 |  |  |  |  | did not show any GLP inhibition | COc1cc2nc(NCCCC(C)C)nc(NC3CCN(Cc4ccccc4)CC3)c2cc1OC [Compound 14d]
